Data reported in the supplement of paper PMC11208160.

Assay: recombinant barcode read abundance after kanamycin selection (control-corrected) (log10(CPM+1)); higher = more efficient recombination; sequences stand for … in AGTGCAGAGAAAATCGGCCAGTTTTCTCTGCCTGCAGTCCGCATGCCGT…AGATTTATGCAGCGGACTGCCTTTCTCCCAAAGTGATAAACCGGACAGTATCATGGACCGGTTTTCCCGGTAATCCGTATTTGCAAGGTTGGTTTCACT; site = the 11-nt target
Description: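 Pooled E. coli target-specificity screen for the IS621 bridge recombinase. Each library plasmid pairs an 11-nt target (CT core) with a bridge RNA whose target-binding loop (9-nt LTG + 4-nt RTG) is reprogrammed; the rest of the 177-nt WT IS621 bridge RNA scaffold is fixed. The plasmid is co-electroporated with a WT donor plasmid; recombinase is induced with 0.1 mM IPTG and recombinants are selected on kanamycin. Recombinant barcodes are sequenced, converted to CPM, averaged over two biological replicates and corrected by the unselected control CPM. Molecule = full bridge RNA written as DNA: LTG = specificity nt 1-9, RTG = reverse complement of specificity nt 8-11, in the WT scaffold.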
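Also: IS621 recombinase and bridge RNA in Escherichia coli cells.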

Sequence	recombinant barcode read abundance (log10)
AACCGCCCTTGGGTTCTAACCTGTTGCCT (site AACCGCCCTAC)	0.899
AACCGCCCTTGGGTTCTAACCTGTTGCCT (site AACCGCCCTAG)	0.478
AACGACGCTTGGGTTCTAACCTGTTGCCT (site AACGACGCTAG)	1.02
AACGACGCTTGGGTTCTAACCTGTTGCCT (site ACCGAGGCTAG)	0.0126
AACGCCTCTTGGGTTCTAACCTGTTGCCT (site AACGCCTCTAG)	0.389
AACGCCTCTTGGGTTCTAACCTGTTGCCT (site CACGCCTCTAG)	0.125
AACGCCTCTTGGGTTCTAACCTGTTGCCT (site GACGCCTCTAG)	0.178
AACGCCTCTTGGGTTCTAACCTGTTGCCT (site TACGCCTCTAG)	0.274
AACGTGTCTTGGGTTCTAACCTGTTGCCT (site AAAGTGTCTAG)	0.375
AACGTGTCTTGGGTTCTAACCTGTTGCCT (site AACGTGTCTAG)	2.57
AACGTGTCTTGGGTTCTAACCTGTTGCCT (site AAGGTGTCTAG)	0.103
AACGTGTCTTGGGTTCTAACCTGTTGCCT (site AATGTGTCTAG)	0.543
AACTGAACTTGGGTTCTAACCTGTTGCCT (site AACTAAACTAG)	0.18
AACTGAACTTGGGTTCTAACCTGTTGCCT (site AACTCAACTAG)	0.056
AACTGAACTTGGGTTCTAACCTGTTGCCT (site AACTGAACTAG)	0.459
AACTGAACTTGGGTTCTAACCTGTTGCCT (site AACTTAACTAG)	0.0689
AACTTCCCTTGGGTTCTAACCTGTTGCCT (site AACTTCACTAG)	0.0364
AACTTCCCTTGGGTTCTAACCTGTTGCCT (site AACTTCCCTAG)	0.315
AACTTCCCTTGGGTTCTAACCTGTTGCCT (site AACTTCGCTAG)	0.00996
AACTTCCCTTGGGTTCTAACCTGTTGCCT (site AACTTCTCTAG)	0.0342
AACTTCTCTTGGGTTCTAACCTGTTGCCT (site AACTTCACTAG)	0.184

Sequence	recombinant barcode read abundance (log10)
AACTTCTCTTGGGTTCTAACCTGTTGCCT (site AACTTCCCTAG)	0.242
AACTTCTCTTGGGTTCTAACCTGTTGCCT (site AACTTCGCTAG)	0.0209
AACTTCTCTTGGGTTCTAACCTGTTGCCT (site AACTTCTCTAG)	0.917
AAGAACACTTGGGTTCTAACCTGTTGCCT (site AAGAACACTAG)	2.06
AAGAACACTTGGGTTCTAACCTGTTGCCT (site CAGAACACTAG)	0.46
AAGAACACTTGGGTTCTAACCTGTTGCCT (site GAGAACACTAG)	0.233
AAGAACACTTGGGTTCTAACCTGTTGCCT (site TAGAACACTAG)	1.19
AAGAACTCTTGGGTTCTAACCTGTTGCCA (site AAGAACTCTTG)	1.11
AAGAACTCTTGGGTTCTAACCTGTTGCCA (site GGCGTGCCTAC)	0.199
AAGACAGCTTGGGTTCTAACCTGTTGCCT (site AAGAAAGCTAG)	0.403
AAGACAGCTTGGGTTCTAACCTGTTGCCT (site AAGACAGCTAG)	1.19
AAGACAGCTTGGGTTCTAACCTGTTGCCT (site AAGAGAGCTAG)	0.0524
AAGACAGCTTGGGTTCTAACCTGTTGCCT (site AAGATAGCTAG)	0.0189
AAGACCTCTTGGGTTCTAACCTGTTGCTT (site AAGACCTCTAA)	1.76
AAGACCTCTTGGGTTCTAACCTGTTGCTT (site AAGCCCTCTAA)	0.139
AAGACCTCTTGGGTTCTAACCTGTTGCTT (site AAGGCCTCTAA)	0.255
AAGACCTCTTGGGTTCTAACCTGTTGCTT (site AAGTCCTCTAA)	0.134
AAGACTCCTTGGGTTCTAACCTGTTGCTT (site AACACTCCTAA)	0.287
AAGACTCCTTGGGTTCTAACCTGTTGCTT (site AAGACTCCTAA)	1.05
AAGAGAGCTTGGGTTCTAACCTGTTGCCT (site AAGAAAGCTAG)	0.0985
AAGAGAGCTTGGGTTCTAACCTGTTGCCT (site AAGACAGCTAG)	0.154

Sequence	recombinant barcode read abundance (log10)
AAGAGAGCTTGGGTTCTAACCTGTTGCCT (site AAGAGAGCTAG)	1.91
AAGAGAGCTTGGGTTCTAACCTGTTGCCT (site AAGATAGCTAG)	0.0307
AAGATCACTTGGGTTCTAACCTGTTGCGG (site AAGATCACTCC)	2.36
AAGATCACTTGGGTTCTAACCTGTTGCGG (site TTACATGCTAG)	0.026
AAGCAAACTTGGGTTCTAACCTGTTGCCT (site AAGCAAACTAG)	0.66
AAGCAAACTTGGGTTCTAACCTGTTGCCT (site AAGCCAACTAG)	0.0799
AAGCAAACTTGGGTTCTAACCTGTTGCCT (site AAGCGAACTAG)	0.22
AAGCAAACTTGGGTTCTAACCTGTTGCCT (site AAGCTAACTAG)	0.218
AAGCAATCTTGGGTTCTAACCTGTTGCCT (site AAGCAATCTAG)	0.927
AAGCAATCTTGGGTTCTAACCTGTTGCCT (site AAGCACTCTAG)	0.159
AAGCAATCTTGGGTTCTAACCTGTTGCCT (site AAGCAGTCTAG)	0.0406
AAGCAATCTTGGGTTCTAACCTGTTGCCT (site AAGCATTCTAG)	0.126
AAGCCACCTTGGGTTCTAACCTGTTGCCT (site AAGCCACCTAG)	2.3
AAGCCACCTTGGGTTCTAACCTGTTGCCT (site CAGCCACCTAG)	0.126
AAGCCACCTTGGGTTCTAACCTGTTGCCT (site GAGCCACCTAG)	0.392
AAGCCACCTTGGGTTCTAACCTGTTGCCT (site TAGCCACCTAG)	1.31
AAGCGTCCTTGGGTTCTAACCTGTTGCCT (site AAGCGTACTAG)	0.384
AAGCGTCCTTGGGTTCTAACCTGTTGCCT (site AAGCGTCCTAG)	1.24
AAGCGTCCTTGGGTTCTAACCTGTTGCCT (site AAGCGTGCTAG)	0.583
AAGCGTCCTTGGGTTCTAACCTGTTGCCT (site AAGCGTTCTAG)	0.06
AAGCTTGCTTGGGTTCTAACCTGTTGCCT (site AAGCTTGCTAG)	1.1

Sequence	recombinant barcode read abundance (log10)
AAGCTTGCTTGGGTTCTAACCTGTTGCCT (site CGATGGACTCA)	0.315
AAGGACGCTTGGGTTCTAACCTGTTGCCT (site AAGGACGCTAG)	2.72
AAGGACGCTTGGGTTCTAACCTGTTGCCT (site AAGGCCGCTAG)	0.241
AAGGACGCTTGGGTTCTAACCTGTTGCCT (site AAGGGCGCTAG)	0.309
AAGGACGCTTGGGTTCTAACCTGTTGCCT (site AAGGTCGCTAG)	0.0217
AAGGGTTCTTGGGTTCTAACCTGTTGCCA (site AAGGGTTCTTG)	1.78
AAGGGTTCTTGGGTTCTAACCTGTTGCCA (site ACGGGTACTTG)	0.0285
AAGGTTCCTTGGGTTCTAACCTGTTGCTA (site AAGGTCCCTTG)	0.0242
AAGGTTCCTTGGGTTCTAACCTGTTGCTA (site AAGGTTCCTTA)	1.73
AAGTACACTTGGGTTCTAACCTGTTGCTG (site AAGTACACTCA)	2.75
AAGTACACTTGGGTTCTAACCTGTTGCTG (site CGACTGTCTAG)	0.0537
AAGTGCTCTTGGGTTCTAACCTGTTGCCT (site AAGTGCTCTAG)	2.34
AAGTGCTCTTGGGTTCTAACCTGTTGCCT (site ACGTGCTCTAG)	0.129
AAGTGCTCTTGGGTTCTAACCTGTTGCCT (site AGGTGCTCTAG)	0.124
AAGTGCTCTTGGGTTCTAACCTGTTGCCT (site ATGTGCTCTAG)	0.127
AAGTGTCCTTGGGTTCTAACCTGTTGCAT (site AAGTGTCCTAT)	1.73
AAGTGTCCTTGGGTTCTAACCTGTTGCAT (site AAGTTTCCTAT)	0.0208
AAGTTTACTTGGGTTCTAACCTGTTGCTT (site AAGTTTACTAA)	0.177
AAGTTTACTTGGGTTCTAACCTGTTGCTT (site AAGTTTACTAG)	0.0137
